*1 amine or outer side, *2 acyl side, *3 side chain or, on linkers, in order; H or OH if unused. Where a SMILES comes first, the peptide text is derived from it. Bridges are numbered along the chain shown (N, C = ends). [ ]: non-standard residue; d: D form. The star is where a group is joined. C20 diacid = O=C(O)CCCCCCCCCCCCCCCCCCC(=O)*; γGlu = O=C(O)[C@H](CCC(=O)[*:2])N[*:1]; Hyp = O=C(O)[C@@H]1C[C@@H](O)CN1; NMeI = CC[C@H](C)[C@H](NC)C(=O)O; Aad = N[C@@H](CCCC(=O)O)C(=O)O; Sar = CNCC(=O)O
Key:
[1] = biological target: T1, human calcitonin receptor (hCTR2) (Homo sapiens, UniProt P30988); assay: hCTR2 cAMP assay (AlphaScreen) in COS7 cells; type: cell-based; conditions: cAMP induction, COS7 cells expressing hCTR2; Table 1; read-out: hCTR2 EC50
T1 construct: expressed in transfected cells
T1 sequence (P30988 25-474): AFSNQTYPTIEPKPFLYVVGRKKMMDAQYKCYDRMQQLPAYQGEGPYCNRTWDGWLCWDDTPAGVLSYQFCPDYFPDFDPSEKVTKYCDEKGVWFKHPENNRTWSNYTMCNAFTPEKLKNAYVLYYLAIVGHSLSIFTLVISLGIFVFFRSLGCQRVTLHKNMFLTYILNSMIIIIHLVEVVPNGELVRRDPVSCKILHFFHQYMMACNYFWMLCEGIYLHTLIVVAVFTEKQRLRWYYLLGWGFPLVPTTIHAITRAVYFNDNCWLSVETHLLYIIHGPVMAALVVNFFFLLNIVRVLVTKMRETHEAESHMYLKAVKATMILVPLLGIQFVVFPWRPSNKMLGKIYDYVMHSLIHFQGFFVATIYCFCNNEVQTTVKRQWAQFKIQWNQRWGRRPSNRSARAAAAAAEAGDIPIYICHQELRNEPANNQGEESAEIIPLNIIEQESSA
Summary of the method: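 Stable hCTR2 clone in RAMP-naïve COS7 cells stimulated 15 min at 37 °C with increasing peptide concentrations in Tyrode buffer pH 7.4 containing IBMX and 0.1% casein. cAMP in lysates measured by AlphaScreen; EC50 from 4-parameter logistic fit.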

[2] = biological target: T2, human amylin receptor 3 (hAMYR3), hCTR2 co-expressed with hRAMP3 (Homo sapiens, UniProt O60896+P30988); assay: hAMYR3 cAMP assay (AlphaScreen) in COS7 cells; type: cell-based; conditions: cAMP induction, COS7 cells expressing hAMYR3; Table 1; read-out: hAMYR3 EC50
T2 construct: expressed in transfected cells
T2 sequence (P30988 25-474): T1 sequence (P30988 25-474)
T2 sequence (O60896 24-148 partner): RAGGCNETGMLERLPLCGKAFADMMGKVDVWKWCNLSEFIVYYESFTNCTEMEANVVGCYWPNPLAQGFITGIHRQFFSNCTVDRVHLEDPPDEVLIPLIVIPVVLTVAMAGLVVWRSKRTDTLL
Summary of the method: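 Stable COS7 clone co-expressing hCTR2 and hRAMP3 was exposed to increasing peptide concentrations in Tyrode buffer (pH 7.4) with 100 µM IBMX and 0.1% casein for 15 min at 37 °C. Lysate cAMP was measured by AlphaScreen; EC50 came from 4-parameter logistic fitting.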

[3] = Assessment of chemical stability (RP-HPLC normalized purity); type: physicochemical; conditions: 7 days, 40° C., Table 1; for Normalized purity after 7 days, 40° C., pH 4: pH 4, 0.2 mg/ml; for Normalized purity after 7 days, 40° C., pH 7.5: pH 7.5, 0.2 mg/ml; for Normalized purity after 7 days, 40° C., pH 9: pH 9, 0.2 mg/ml; for Normalized purity after 7 days, 40° C., pH 6: pH 6, 0.2 mg/ml
Summary of the method: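 Peptides at 0.2 mg/ml in water adjusted to pH 4, 6, 7.5 or 9, incubated at 40° C for 7 days. Main-peak area-% by RP-HPLC (C8 ammonium formate or C18 TFA gradient, UV 220 nm), normalized to T=0 as 100.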

SMILES	EC50 [1]	EC50 [2]	Normalized purity after 7 days, 40° C., pH 4 [3]	Normalized purity after 7 days, 40° C., pH 7.5 [3]	Normalized purity after 7 days, 40° C., pH 9 [3]	Normalized purity after 7 days, 40° C., pH 6 [3]
CC[C@H](C)[C@@H](C(=O)N[C@@H](CC(C)C)C(=O)N[C@@H](CO)C(=O)N[C@@H](CO)C(=O)N[C@H](C(=O)N[C@@H](CCC(=O)O)C(=O)N[C@H](C(=O)NCC(=O)N[C@@H](CO)C(=O)N[C@@H](CO)C(=O)N[C@H](C(=O)N1C[C@H](O)C[C@H]1C(N)=O)[C@@H](C)O)C(C)C)[C@@H](C)O)N(C)C(=O)[C@H](C)NC(=O)CN(C)C(=O)[C@H](Cc1ccccc1)NC(=O)[C@H](CO)NC(=O)[C@H](CO)NC(=O)[C@H](CCCNC(=N)N)NC(=O)[C@H](CC(N)=O)NC(=O)[C@H](CC(C)C)NC(=O)[C@H](Cc1ccccc1)NC(=O)[C@H](Cc1c[nH]cn1)NC(=O)[C@H](C)NC(=O)[C@H](CC(C)C)NC(=O)[C@H](CCCNC(=N)N)NC(=O)[C@H](CCC(=O)O)NC(=O)[C@@H](NC(=O)[C@H](C)NC(=O)[C@@H]1CSSC[C@H](NC(=O)[C@H](CCCNC(=N)N)NC(=O)CC[C@H](NC(=O)CCCCCCCCCCCCCCCCCCC(=O)O)C(=O)O)C(=O)NCC(=O)N[C@@H]([C@@H](C)O)C(=O)N[C@@H](C)C(=O)N[C@@H]([C@@H](C)O)C(=O)N1)[C@@H](C)O [Compound 29, [19CD]-isoGlu-R-C( )-GTAT-C( )-ATERLAHFLNRSSF-Gly(Me)-A-Ile(Me)-LSSTEVGSST-Hyp-NH2] ({C20 diacid-γGlu}-RCGTATCATERLAHFLNRSSF[Sar]A[NMeI]LSSTEVGSST[Hyp]-NH2; disulfide 2-7)	0.09 nM	0.12 nM	A (A = >90%)	B (B = 70-90%)	B (B = 70-90%)	
CC[C@H](C)[C@@H](C(=O)N[C@@H](CC(C)C)C(=O)N[C@@H](CO)C(=O)N[C@@H](CO)C(=O)N[C@H](C(=O)N[C@@H](CCC(=O)O)C(=O)N[C@H](C(=O)NCC(=O)N[C@@H](CO)C(=O)N[C@@H](CO)C(=O)N[C@H](C(=O)N1C[C@H](O)C[C@H]1C(N)=O)[C@@H](C)O)C(C)C)[C@@H](C)O)N(C)C(=O)[C@H](C)NC(=O)CN(C)C(=O)[C@H](Cc1ccccc1)NC(=O)[C@H](CO)NC(=O)[C@H](CO)NC(=O)[C@H](CCCNC(=N)N)NC(=O)[C@@H](NC(=O)[C@H](CC(C)C)NC(=O)[C@H](Cc1ccccc1)NC(=O)[C@H](CC(=O)O)NC(=O)[C@H](C)NC(=O)[C@H](CC(C)C)NC(=O)[C@H](CCCNC(=N)N)NC(=O)[C@H](CCC(=O)O)NC(=O)[C@@H](NC(=O)[C@H](C)NC(=O)[C@@H]1CSSC[C@H](NC(=O)[C@H](CCCNC(=N)N)NC(=O)CC[C@H](NC(=O)CCCCCCCCCCCCCCCCCCC(=O)O)C(=O)O)C(=O)NCC(=O)N[C@@H]([C@@H](C)O)C(=O)N[C@@H](C)C(=O)N[C@@H]([C@@H](C)O)C(=O)N1)[C@@H](C)O)[C@@H](C)O [Compound 41, [19CD]-isoGlu-R-C( )-GTAT-C( )-ATERLADFLTRSSF-Gly(Me)-A-Ile(Me)-LSSTEVGSST-Hyp-NH2] ({C20 diacid-γGlu}-RCGTATCATERLADFLTRSSF[Sar]A[NMeI]LSSTEVGSST[Hyp]-NH2; disulfide 2-7)	0.15 nM	0.34 nM	B (B = 70-90%)	A (A = >90%)	A (A = >90%)	A (A = >90%)
CC[C@H](C)[C@@H](C(=O)N[C@@H](CC(C)C)C(=O)N[C@@H](CO)C(=O)N[C@@H](CO)C(=O)N[C@H](C(=O)N[C@@H](CCC(=O)O)C(=O)N[C@H](C(=O)NCC(=O)N[C@@H](CO)C(=O)N[C@@H](CO)C(=O)N[C@H](C(=O)N1C[C@H](O)C[C@H]1C(N)=O)[C@@H](C)O)C(C)C)[C@@H](C)O)N(C)C(=O)[C@H](C)NC(=O)CN(C)C(=O)[C@H](Cc1ccccc1)NC(=O)[C@H](CO)NC(=O)[C@H](CO)NC(=O)[C@H](CCCNC(=N)N)NC(=O)[C@@H](NC(=O)[C@H](CC(C)C)NC(=O)[C@H](Cc1ccccc1)NC(=O)[C@H](CCCC(=O)O)NC(=O)[C@H](C)NC(=O)[C@H](CC(C)C)NC(=O)[C@H](CCCNC(=N)N)NC(=O)[C@H](CCC(=O)O)NC(=O)[C@@H](NC(=O)[C@H](C)NC(=O)[C@@H]1CSSC[C@H](NC(=O)[C@H](CCCNC(=N)N)NC(=O)CC[C@H](NC(=O)CCCCCCCCCCCCCCCCCCC(=O)O)C(=O)O)C(=O)NCC(=O)N[C@@H]([C@@H](C)O)C(=O)N[C@@H](C)C(=O)N[C@@H]([C@@H](C)O)C(=O)N1)[C@@H](C)O)[C@@H](C)O [Compound 43, [19CD]-isoGlu-R-C( )-GTAT-C( )-ATERLA-Aad-FLTRSSF-Gly(Me)-A-Ile(Me)-LSSTEVGSST-Hyp-NH2] ({C20 diacid-γGlu}-RCGTATCATERLA[Aad]FLTRSSF[Sar]A[NMeI]LSSTEVGSST[Hyp]-NH2; disulfide 2-7)	0.22 nM	0.35 nM	A (A = >90%)	A (A = >90%)	A (A = >90%)	A (A = >90%)
CC[C@H](C)[C@@H](C(=O)N[C@@H](CC(C)C)C(=O)N[C@@H](CO)C(=O)N[C@@H](CO)C(=O)N[C@H](C(=O)N[C@@H](CCC(=O)O)C(=O)N[C@H](C(=O)NCC(=O)N[C@@H](CO)C(=O)N[C@@H](CC(N)=O)C(=O)N[C@H](C(=O)N1CCC[C@H]1C(N)=O)[C@@H](C)O)C(C)C)[C@@H](C)O)N(C)C(=O)[C@H](C)NC(=O)CN(C)C(=O)[C@H](Cc1ccccc1)NC(=O)[C@H](CO)NC(=O)[C@H](CO)NC(=O)[C@H](CCCNC(=N)N)NC(=O)[C@H](CCC(N)=O)NC(=O)[C@H](CC(C)C)NC(=O)[C@H](Cc1ccccc1)NC(=O)[C@H](CC(=O)O)NC(=O)[C@H](C)NC(=O)[C@H](CC(C)C)NC(=O)[C@H](CCCNC(=N)N)NC(=O)[C@H](CCC(N)=O)NC(=O)[C@@H](NC(=O)[C@H](C)NC(=O)[C@@H]1CSSC[C@H](NC(=O)[C@H](CCCNC(=N)N)NC(=O)CC[C@H](NC(=O)CCCCCCCCCCCCCCCCCCC(=O)O)C(=O)O)C(=O)N[C@@H](CC(N)=O)C(=O)N[C@@H]([C@@H](C)O)C(=O)N[C@@H](C)C(=O)N[C@@H]([C@@H](C)O)C(=O)N1)[C@@H](C)O [Compound 65, [19CD]-isoGlu-R-C( )-NTAT-C( )-ATQRLADFLQRSSF-Gly(Me)-A-Ile(Me)-LSSTEVGSNTP-NH2] ({C20 diacid-γGlu}-RCNTATCATQRLADFLQRSSF[Sar]A[NMeI]LSSTEVGSNTP-NH2; disulfide 2-7)	0.14 nM	0.26 nM	A (A = >90%)	A (A = >90%)	A (A = >90%)	A (A = >90%)
CC[C@H](C)[C@@H](C(=O)N[C@@H](CC(C)C)C(=O)N[C@@H](CO)C(=O)N[C@@H](CO)C(=O)N[C@H](C(=O)N[C@@H](CCC(=O)O)C(=O)N[C@H](C(=O)NCC(=O)N[C@@H](CO)C(=O)N[C@@H](CO)C(=O)N[C@H](C(=O)N1C[C@H](O)C[C@H]1C(N)=O)[C@@H](C)O)C(C)C)[C@@H](C)O)N(C)C(=O)[C@H](C)NC(=O)CN(C)C(=O)[C@H](Cc1ccccc1)NC(=O)[C@H](CO)NC(=O)[C@H](CO)NC(=O)[C@H](CCCNC(=N)N)NC(=O)[C@H](CCC(N)=O)NC(=O)[C@H](CC(C)C)NC(=O)[C@H](Cc1ccccc1)NC(=O)[C@H](CCCC(=O)O)NC(=O)[C@H](C)NC(=O)[C@H](CC(C)C)NC(=O)[C@H](CCCNC(=N)N)NC(=O)[C@H](CCC(N)=O)NC(=O)[C@@H](NC(=O)[C@H](C)NC(=O)[C@@H]1CSSC[C@H](NC(=O)[C@H](CCCNC(=N)N)NC(=O)CC[C@H](NC(=O)CCCCCCCCCCCCCCCCCCC(=O)O)C(=O)O)C(=O)N[C@@H](CC(N)=O)C(=O)N[C@@H]([C@@H](C)O)C(=O)N[C@@H](C)C(=O)N[C@@H]([C@@H](C)O)C(=O)N1)[C@@H](C)O [Compound 87, [19CD]-isoGlu-R-C( )-NTAT-C( )-ATQRLA-Aad-FLQRSSF-Gly(Me)-A-Ile(Me)-LSSTEVGSST-Hyp-NH2] ({C20 diacid-γGlu}-RCNTATCATQRLA[Aad]FLQRSSF[Sar]A[NMeI]LSSTEVGSST[Hyp]-NH2; disulfide 2-7)	0.2 nM	0.13 nM				

— US20210115104A1, “AMYLIN ANALOGUES” (Zealand Pharma A/S, priority 2015, published 2021)
